Experimental data as given in patent US12378216B2, “Heteroaryl(heterocyclyl)methanol compounds useful in the treatment of hyperglycaemia” (ATROGI AB, priority 2019, dated 2025).
Structures can show the parent of a compound that is named as a salt.

Legend:
[1] = test system: Intracellular cAMP levels; assay: Measurement of intracellular cAMP levels in differentiated L6 cells (alpha screen cAMP kit); type: cell-based; settings: for Biological example 2 (intracellular cAMP levels, activity compared to that of isoproterenol): differentiated cells, agonist final concentration 1×10-^5, 15 min, relative to isoproterenol, Table 1; for Biological example 4: Table 2, the assay of Biological Example 2 (intracellular cAMP, agonist 1×10-^5, relative to isoproterenol)
Experimental: (§1) L6-myoblasts were grown in Dulbecco's Modified Eagle's Medium (DMEM) containing 4.5 g/I glucose supplemented with 10% fetal bovine serum, 2 mM L-Glutamine, 50 U/ml penicillin, 50 μg/ml streptomycin and 10 mM HEPES. Cells were plated at 1×10^5 cells per ml in 24-well plates. After reaching 90% confluence the cells were grown in medium containing 2% FBS for 7 days where upon cells differentiated into myotubes.
Differentiated cells were serum-starved overnight and stimulated with agonist, final concentration 1×10-^5, for 15 min in stimulation buffer (HBSS supplemented with 1% BSA, 5 mM HEPES and 1 mM IBMX, pH 7.4) The medium was then aspirated and to end the reaction 100 μL of 95% EtOH was added to each well of a 24-well plate and cells were kept in −20° C. over night. The EtOH was let to evaporate and 500 μL of lysis buffer (1% BSA, 5 mM HEPES and 0.3% Tween-20, pH 7.4) was added to each well before put in −80° C. for 30 min and then kept in −20° C. Intracellular cAMP levels were detected using an alpha screen cAMP kit (6760635D from Perkin Elmer). The activity for each compound is compared to that of isoproterenol.

[2] = test system: L6-myotubes; assay: Glucose uptake in differentiated L6-myotubes (3H-2-deoxy-glucose); type: cell-based; settings: for Biological example 1 (glucose uptake, activity compared to that of isoproterenol): L6-myotubes, agonist final concentration 1×10^−5, relative to isoproterenol, Table 1; for Biological example 3: Table 2, the assay of Biological Example 1 (glucose uptake, L6-myotubes, agonist 1×10^−5, relative to isoproterenol)
Experimental: as §1
Differentiated L6-myotubes were serum-starved overnight in medium containing 0.5% fatty-acid free BSA and stimulated with agonist, final concentration 1×10^−5. After 1 h 40 min cells were washed with warm, glucose free medium or PBS and another portion of agonist was added to glucose free medium. After 20 min the cells were exposed to 50 nM ^3H-2-deoxy-glucose for another 10 min before washed in ice cold glucose free medium or PBS and lysed in 0.2 M NaOH for 1 h in 60° C.

| Structure (SMILES) | Biological example 2 (intracellular cAMP levels, activity compared to that of isoproterenol) [1] | Biological example 1 (glucose uptake, activity compared to that of isoproterenol) [2] | Biological example 4 [1] | Biological example 3 [2] |
| --- | --- | --- | --- | --- |
| CCC[C@H]1CCC[C@H]([C@H](O)c2cncc(F)c2)N1 [Example 1, (R)-(5-Fluoropyridin-3-yl)((2R,6S)-6-propylpiperidin-2-yl)methanol dihydrochloride] | − (less than 25%) | − (less than 25%) |  |  |
| CCC[C@H]1CCC[C@H]([C@@H](O)c2cncc(F)c2)N1 [Example 2, (S)-(5-Fluoropyridin-3-yl)((2R,6S)-6-propylpiperidin-2-yl)methanol] | − (less than 25%) | − (less than 25%) |  |  |
| CCC[C@@H]1CC[C@H]([C@H](O)c2cncc(F)c2)N1.O=C(O)/C=C\C(=O)O [Example 3, (R)-(5-Fluoropyridin-3-yl)((2R,5R)-5-propylpyrrolidin-2-yl)methanol maleate] | − (less than 25%) | +++ (more than 75% of that of isoproterenol) |  |  |
| CCC[C@@H]1CC[C@H]([C@@H](O)c2cncc(F)c2)N1.O=C(O)/C=C\C(=O)O [Example 4, (S)-(5-Fluoropyridin-3-yl)((2R,5R)-5-propylpyrrolidin-2-yl)methanol maleate] | − (less than 25%) | ++ (between 75 and 50%) |  |  |
| CC1(C)CC[C@H]([C@H](O)c2cncc(F)c2)N1 [Example 5, (R)-((R)-5,5-Dimethylpyrrolidin-2-yl)(5-fluoropyridin-3-yl)methanol] | − (less than 25%) | +++ (more than 75% of that of isoproterenol) |  |  |
| CC1(C)CC[C@H]([C@@H](O)c2cncc(F)c2)N1 [Example 6, (S)-((R)-5,5-Dimethylpyrrolidin-2-yl) (5-fluoropyridin-3-yl)methanol] | − (less than 25%) | − (less than 25%) |  |  |
| CC1(C)CC[C@H]([C@H](O)c2cncc(O)c2)N1 [Example 7] | − (less than 25%) | ++ (between 75 and 50%) |  |  |
| CC1(C)CC[C@H]([C@@H](O)c2cncc(O)c2)N1 [Example 8, 5-((S)-((R)-5,5-dimethylpyrrolidin-2-yl)(hydroxy)methyl)pyridin-3-ol] | − (less than 25%) | + (between 50 and 25%) |  |  |
| CC1(C)C[C@H]([C@H](O)c2cncc(F)c2)N1 [Example 9, (R)-((R)-4,4-Dimethylazetidin-2-yl)(5-fluoropyridine-3-yl)methanol dihydrochloride] |  |  | − (less than 25%) | +++ (more than 75% of that of isoproterenol) |
| CC1(C)C[C@@H]([C@H](O)c2cncc(F)c2)N1 [Example 10, (R)-((S)-4,4-Dimethylazetidin-2-yl)(5-fluoropyridine-3-yl)methanol dihydrochloride] |  |  | − (less than 25%) | + (between 50 and 25%) |
| CC1(C)C[C@@H]([C@@H](O)c2cncc(F)c2)N1 [Example 11, (S)-((S)-4,4-Dimethylazetidin-2-yl) (5-fluoropyridine-3-yl) methanol dihydrochloride] |  |  | − (less than 25%) | + (between 50 and 25%) |
| CC1(C)C[C@H]([C@@H](O)c2cncc(F)c2)N1 [Example 12, (S)-((R)-4,4-Dimethylazetidin-2-yl)(5-fluoropyridin-3-yl)methanol dihydrochloride] |  |  | − (less than 25%) | + (between 50 and 25%) |
| CCC[C@@H]1CCCC[C@H]([C@H](O)c2cncc(F)c2)N1 [Example 13, (R)-(5-Fluoropyridin-3-yl)((2R,7R)-7-propylazepan-2-yl)methanol] |  |  | − (less than 25%) | − (less than 25%) |
| CCC[C@@H]1CCCC[C@H]([C@@H](O)c2cncc(F)c2)N1 [Example 14, (S)-(5-Fluoropyridin-3-yl)((2R,7R)-7-propylazepan-2-yl)methanol] |  |  | − (less than 25%) | − (less than 25%) |
| CCC[C@H]1CCCC[C@@H]([C@H](O)c2cncc(F)c2)N1 [Example 15, (R)-(5-Fluoropyridin-3-yl)(S,7S)-7-propylazepan-2-yl)methanol dihydrochloride] |  |  |  | ++ (between 75 and 50%) |
| CCC[C@H]1CCCC[C@@H]([C@@H](O)c2cncc(F)c2)N1 [Example 16] |  |  |  | + (between 50 and 25%) |
